Here are results for three compounds from patent US3954814A, “Alkadienylcyclopropanecarboxylates” (Sumitomo Chemical Company, Limited, priority 1971, dated 1976).

Values after ≈ are worked out from the molar mass of the structure shown.

Common to all, as to type: in vivo
One assay relates to house flies. The assay is described as follows: Campbell's turn table oil spray test on house fly adults (Experimental Example 1). To be noted: Musca domestica, 24 h, oil spray 5 ml, 10 min exposure, mortality after 1 day, read-out: LC50 (50 percent lethal concentration). In a few lines:
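Compounds formulated in deodorized kerosene as oil sprays at various concentrations and sprayed (5 ml) in a Campbell's turn table. About 100 adult flies exposed to settling mist for 10 minutes starting 20 s after spraying, then moved to observation cage. LC50 from repeated runs.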

The next assay relates to rice stem borer larvae. In words: micro dropping (topical) test on hibernating rice stem borer larvae (Experimental Example 3). The conditions noted are these: topical in acetone, head and tail of larvae, 3 days. An excerpt:
The present compounds (1), (4), (8), (10), (14), (15), (22), (32), (36), (38), (41), (44), (48), (50), (51), (52), (53), (61), (66), (68), (72), (73), (80), (81), (90) and (93) and chrysanthemic acid esters corresponding thereto were individually dissolved in acetone to prepare insecticides of various concentrations. Using a micro dropping means, each of the insecticides was dropped to the head and tail of hibernating rice stem borer larvae.

For assay [1], the system named is Northern house mosquitoes. The assay is described as follows: knock-down test of oil sprays on Northern house mosquito adults in (70 cm)^3 glass chamber (Experimental Example 2).
[2] abbreviates: concentration of oil spray 0.2%.

In the case of `C=CC(C)=CC1C(C(=O)OC(C#N)c2cccc(Oc3ccccc3)c2)C1(C)C` (stereo not drawn) [Present compound (22), 3-Phenoxy-α-cyanobenzyl 2',2'-dimethyl-3'-(2"-methyl-1",3"-butadienyl)-cyclopropanecarboxylate], in the assay on house flies, the LC50 stood at 40 µg/mL (≈ 103 µM). In addition, the “LD50 (50 percent lethal dose)” value in the assay on rice stem borer larvae is 0.006 γ/larva. For the same compound, the “KT50 (50 percent knock down time)” value in assay [1] (concentration of oil spray 0.1%) is 168 s.
Take `C=C(C)C=CC1C(C(=O)OCc2coc(Cc3ccccc3)c2)C1(C)C` (stereo not drawn) [Present compound (53), 5-Benzyl-3-furylmethyl 2',2'-dimethyl-3'-(3"-methyl-1",3"-butadienyl)-cyclopropanecarboxylate]: the LC50 in the assay on house flies was 71 µg/mL (≈ 203 µM). In the assay with rice stem borer larvae, the “LD50 (50 percent lethal dose)” value is 0.170 γ/larva. In addition, the “KT50 (50 percent knock down time)” value in assay [1] (setting [2]) was determined as 124 s.
The like results for `C=CC=CC1C(C(=O)OC2CC(=O)C(CC=C)=C2C)C1(C)C` (stereo not drawn) [Present compound (81), 2-Allyl-3-methyl-2-cyclopentene-1-one-4-yl 2',2'-dimethyl-3'-(1",3"-butadienyl)-cyclopropanecarboxylate] were, in that order, 590 µg/mL (≈ 1960 µM), 1.7 γ/larva and 141 s.
